According to US9133183B2, “Imidazolidinones and analogs exhibiting anti-cancer and anti-proliferative activities” (Deciphera Pharmaceuticals, LLC, priority 2013, dated 2015):
pIC50: −log10 of the molar value.

Key:
[1] = molecular target: unphosphorylated c-FMS kinase (uFMS, Seq. ID no. 1) (Homo sapiens (Human), UniProt P07333); assay: uFMS kinase assay (ADP production coupled to pyruvate kinase/lactate dehydrogenase); assay type: biochemical; conditions: enzymatic assay, ATP 500 μM; read-out: uFMS
In short: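 Unphosphorylated FMS (10 nM) with polyE4Y 1 mg/mL and 500 μM ATP in 90 mM Tris pH 7.5, 10 mM MgCl2, 0.2% octyl-glucoside, 1% DMSO. ADP formation was coupled via pyruvate kinase/LDH to NADH oxidation, followed at A340 for 4 h at 30° C.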

[2] = system: M-NFS-60 cells; assay: M-NFS-60 cell proliferation assay (resazurin); assay type: cell-based; conditions: 67 h incubation
In short: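 Cells kept in medium containing 20 ng/mL mouse recombinant M-CSF. Fluorescence was read at ex 540/em 600 nm, and IC50 was fitted from percent inhibition across a range of inhibitor concentrations.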

[3] = system: osteoclast precursors; assay: Osteoclast tartrate-resistant acid phosphatase assay; assay type: cell-based; conditions: Osteoclast, 7-14 days, RANKL and M-CSF
[4] = molecular target: c-FMS kinase in THP-1 cells (Homo sapiens (Human), UniProt P07333); assay: Phospho-FMS ELISA assay in THP-1 cells; assay type: cell-based; conditions: 4 h compound, M-CSF stimulation 5 min; read-out: pFMS inhibition in THP-1 cells
Method: THP-1 cells (catalog #TIB-202) were obtained from the ATCC. Briefly, cells were grown in RPMI 1640 supplemented with 10% characterized fetal bovine serum, 1% sodium pyruvate, 1% Penicillin-Streptomycin-Glutamine (PSG) and 55 uM 2-mercaptoethanol (Invitrogen, Carlsbad, Calif.) at 37 degrees Celsius, 5% CO2, 95% humidity. Cells were allowed to expand until reaching 70-95% confluency at which point they were subcultured or harvested for assay use.
A serial dilution of test compound was diluted 1:100 in assay medium (RPMI 1640 supplemented with 10% characterized fetal bovine serum) in a 96 well black clear bottom plate (Corning, Corning, N.Y.). In a separate 96 well black clear bottom plate, one hundred and fifty thousand THP-1 cells were added per well in 100 μL in assay medium. Fifty microliters of diluted compound was then added to the cells. Plates were incubated for 4 hours at 37 degrees Celsius, 5% CO2, 95% humidity. At the end of the incubation period, cells were stimulated with 50 μL of a 100 nM solution of recombinant human M-CSF (catalog #216-MC, R & D Systems, Minneapolis, Minn.) in assay medium and the plate was incubated for 5 minutes at 37 degrees Celsius, 5% CO2, 95% humidity. Lysates were prepared and used to perform the phospho-FMS ELISA as described by the manufacturer (catalog #DYC3268, R & D Systems, Minneapolis, Minn.). GraphPad Prism was used to calculate IC50 values obtained from data generated from the ELISA assay.

[5] = molecular target: unphosphorylated c-KIT kinase (uKIT, Seq. ID no. 2) (Homo sapiens (Human), UniProt P10721); assay: uKit kinase assay (coupled pyruvate kinase/lactate dehydrogenase); assay type: biochemical; conditions: enzymatic assay, ATP 2000 μM
In short: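 Unphosphorylated KIT (12 nM, N-terminal GST fusion) was run with 1 mg/mL polyE4Y, 2000 μM ATP and 10 mM MgCl2 in Tris buffer (pH 7.5, 0.2% octyl-glucoside, 1% DMSO). ADP was coupled via PK/LDH, with NADH loss tracked at A340 for 4 h at 30 °C. Rates at 3–4 h gave % inhibition and IC50.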

[6] = molecular target: unphosphorylated PDGFRβ kinase (uPDGFRβ, Seq. ID No. 3) (Homo sapiens (Human), UniProt P09619); assay: Unphosphorylated PDGFRβ kinase assay (coupled pyruvate kinase/lactate dehydrogenase); assay type: biochemical; conditions: enzymatic assay, ATP 500 μM
Method: Unphosphorylated PDGFRβ (uPDGFRβ) Kinase (Seq. ID No. 3) Assay
Activity of unphosphorylated PDGFRβ kinase (uPDGFRβ, Seq. ID No. 3) was determined by following the production of ADP from the kinase reaction with ATP and poly E4Y as substrates through coupling with the pyruvate kinase/lactate dehydrogenase system (e.g., Schindler et al. Science (2000) 289: 1938-1942). In this assay, the oxidation of NADH (thus the decrease at A340 nm) was continuously monitored spectrophometrically. The reaction mixture (100 μL) contained PDGFRβ (DeCode, 15.7 nM), polyE4Y (2.5 mg/mL), MgCl2 (10 mM), pyruvate kinase (4 units), lactate dehydrogenase (0.7 units), phosphoenol pyruvate (1 mM) and NADH (0.28 mM) and ATP (500 μM) in a 90 mM Tris buffer containing 0.2% octyl-glucoside and 1% DMSO, at pH 7.5. The inhibition reaction was started by mixing serial diluted test compound with the above reaction mixture. The absorption at 340 nm was monitored continuously for 4 h at 30° C. on a Polarstar Optima or Synergy 2 plate reader. The reaction rate was calculated using the 1.5 to 2.5 h time frame. Percent inhibition was obtained by comparison of reaction rate with that of a control (i.e., with no test compound). IC50 values were calculated from a series of percent inhibition values determined at a range of inhibitor concentrations using software routines as implemented in the GraphPad Prism software package.
uPDGFRβ Kinase Sequence (Residues 557-1106) Used for Screening (Seq ID No. 3)

unphosphorylated PDGFRβ kinase (uPDGFRβ, Seq. ID No. 3), sequence (P09619 557-1106): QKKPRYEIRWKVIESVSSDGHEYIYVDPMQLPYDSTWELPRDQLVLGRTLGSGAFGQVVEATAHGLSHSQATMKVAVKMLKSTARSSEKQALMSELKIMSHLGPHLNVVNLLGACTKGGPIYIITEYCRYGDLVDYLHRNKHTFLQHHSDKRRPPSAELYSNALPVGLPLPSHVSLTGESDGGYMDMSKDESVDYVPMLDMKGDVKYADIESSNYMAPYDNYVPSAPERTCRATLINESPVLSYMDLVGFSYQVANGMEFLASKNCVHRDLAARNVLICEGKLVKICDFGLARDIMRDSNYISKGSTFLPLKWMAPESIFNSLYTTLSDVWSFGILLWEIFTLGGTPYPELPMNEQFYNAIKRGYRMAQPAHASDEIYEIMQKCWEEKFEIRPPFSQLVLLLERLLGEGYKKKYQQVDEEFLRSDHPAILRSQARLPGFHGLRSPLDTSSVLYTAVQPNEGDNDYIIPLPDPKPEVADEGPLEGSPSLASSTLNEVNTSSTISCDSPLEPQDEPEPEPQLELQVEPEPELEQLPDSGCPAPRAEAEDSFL
unphosphorylated c-KIT kinase (uKIT, Seq. ID no. 2), sequence (P10721 other isoform, or with tags, fused parts or gaps): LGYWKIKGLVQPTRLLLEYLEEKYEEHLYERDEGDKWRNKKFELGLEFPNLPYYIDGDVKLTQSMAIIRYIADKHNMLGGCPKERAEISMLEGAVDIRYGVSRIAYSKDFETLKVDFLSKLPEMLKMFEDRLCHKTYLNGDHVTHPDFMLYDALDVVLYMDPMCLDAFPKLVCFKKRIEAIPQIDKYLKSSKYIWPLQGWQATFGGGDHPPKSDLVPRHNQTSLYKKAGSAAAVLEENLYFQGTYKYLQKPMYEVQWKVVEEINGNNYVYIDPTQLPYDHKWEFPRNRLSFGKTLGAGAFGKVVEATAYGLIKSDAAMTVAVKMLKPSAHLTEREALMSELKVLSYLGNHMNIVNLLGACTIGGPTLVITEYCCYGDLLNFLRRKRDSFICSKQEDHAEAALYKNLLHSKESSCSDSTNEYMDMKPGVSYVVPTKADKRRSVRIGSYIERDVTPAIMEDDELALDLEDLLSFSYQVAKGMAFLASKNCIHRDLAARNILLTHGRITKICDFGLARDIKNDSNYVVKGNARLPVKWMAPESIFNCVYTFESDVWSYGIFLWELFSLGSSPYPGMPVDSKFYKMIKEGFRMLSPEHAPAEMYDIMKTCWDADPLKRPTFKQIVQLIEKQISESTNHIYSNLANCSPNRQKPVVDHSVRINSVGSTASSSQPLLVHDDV
unphosphorylated c-FMS kinase (uFMS, Seq. ID no. 1), sequence (P07333 538-972): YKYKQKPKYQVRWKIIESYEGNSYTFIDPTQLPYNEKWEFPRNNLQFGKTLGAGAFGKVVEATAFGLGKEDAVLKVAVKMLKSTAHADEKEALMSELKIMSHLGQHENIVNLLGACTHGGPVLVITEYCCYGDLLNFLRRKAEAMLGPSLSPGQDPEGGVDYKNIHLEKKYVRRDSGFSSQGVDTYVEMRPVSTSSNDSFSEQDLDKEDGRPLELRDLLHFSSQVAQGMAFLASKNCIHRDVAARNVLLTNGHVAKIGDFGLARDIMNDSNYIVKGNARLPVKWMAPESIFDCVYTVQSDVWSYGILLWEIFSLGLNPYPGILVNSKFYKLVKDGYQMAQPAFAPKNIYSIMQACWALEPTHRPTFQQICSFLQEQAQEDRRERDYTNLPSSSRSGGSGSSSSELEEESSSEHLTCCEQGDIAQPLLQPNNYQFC
c-FMS kinase in THP-1 cells, sequence (P07333 20-972): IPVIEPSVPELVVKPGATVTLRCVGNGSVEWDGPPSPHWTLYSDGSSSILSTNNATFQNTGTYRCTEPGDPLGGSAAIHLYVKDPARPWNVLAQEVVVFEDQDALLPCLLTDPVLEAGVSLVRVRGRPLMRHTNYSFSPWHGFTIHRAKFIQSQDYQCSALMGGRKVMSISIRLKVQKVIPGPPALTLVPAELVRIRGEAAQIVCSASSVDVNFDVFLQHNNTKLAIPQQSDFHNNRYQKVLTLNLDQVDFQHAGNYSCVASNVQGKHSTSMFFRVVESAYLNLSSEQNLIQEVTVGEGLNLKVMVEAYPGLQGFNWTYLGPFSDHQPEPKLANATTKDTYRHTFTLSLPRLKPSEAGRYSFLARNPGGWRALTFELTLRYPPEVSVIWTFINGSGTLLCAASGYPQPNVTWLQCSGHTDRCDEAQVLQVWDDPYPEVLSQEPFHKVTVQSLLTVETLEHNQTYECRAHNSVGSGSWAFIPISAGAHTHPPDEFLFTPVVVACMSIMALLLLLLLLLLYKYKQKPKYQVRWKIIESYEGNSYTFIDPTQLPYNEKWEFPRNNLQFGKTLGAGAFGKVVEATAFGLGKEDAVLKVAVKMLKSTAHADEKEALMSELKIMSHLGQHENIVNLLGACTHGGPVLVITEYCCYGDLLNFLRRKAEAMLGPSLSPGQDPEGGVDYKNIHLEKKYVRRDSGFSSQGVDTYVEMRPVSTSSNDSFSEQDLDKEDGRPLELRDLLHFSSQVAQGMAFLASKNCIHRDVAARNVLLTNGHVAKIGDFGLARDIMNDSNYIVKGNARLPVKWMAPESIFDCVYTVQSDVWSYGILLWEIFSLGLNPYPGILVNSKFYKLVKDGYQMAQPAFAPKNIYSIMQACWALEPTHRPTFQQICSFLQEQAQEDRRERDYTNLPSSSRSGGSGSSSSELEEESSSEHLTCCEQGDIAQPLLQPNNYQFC

pIC50 [1]	pIC50 [3]	pIC50 [4]	pIC50 [5]	pIC50 [6]	SMILES	pIC50 [2]
7.00 to 8.00	7.00 to 8.00	7.00 to 8.00	–	–	Cn1cc(-c2cc(Oc3ccc(NC(=O)N4CCN(C5CCOCC5)C4=O)nc3)ncn2)cn1 [Example 8, N-(5-((6-(1-methyl-1H-pyrazol-4-yl)pyrimidin-4-yl)oxy)pyridin-2-yl)-2-oxo-3-(tetrahydro-2H-pyran-4-yl)imidazolidine-1-carboxamide]	6.00 to 7.00
> 8.00	> 8.00	–	7.00 to 8.00	< 6.00	CCN1CCN(C(=O)Nc2ccc(Oc3ccnc(-c4ccc(N5CCN(C)CC5)cc4)c3)c(C)n2)C1=O [Example 68, 3-ethyl-N-(6-methyl-5-((2-(4-(4-methylpiperazin-1-yl)phenyl)pyridin-4-yl)oxy)pyridin-2-yl)-2-oxoimidazolidine-1-carboxamide]	7.00 to 8.00
7.00 to 8.00	7.00 to 8.00	–	7.00 to 8.00	< 6.00	CCN1CCN(C(=O)Nc2ccc(Oc3ccnc(-c4cnc(C)s4)c3)cn2)C1=O [Example 69, 3-ethyl-N-(5-((2-(2-methylthiazol-5-yl)pyridin-4-yl)oxy)pyridin-2-yl)-2-oxoimidazolidine-1-carboxamide]	6.00 to 7.00
7.00 to 8.00	7.00 to 8.00	–	6.00 to 7.00	< 6.00	CCN1CCN(C(=O)Nc2ccc(Oc3ccnc(-c4cnc(C)s4)c3)c(C)n2)C1=O [Example 70, 3-ethyl-N-(6-methyl-5-((2-(2-methylthiazol-5-yl)pyridin-4-yl)oxy)pyridin-2-yl)-2-oxoimidazolidine-1-carboxamide]	6.00 to 7.00
> 8.00	7.00 to 8.00	–	7.00 to 8.00	6.00 to 7.00	Cc1cc(NC(=O)N2CCN(C3CC3)C2=O)nc(C)c1Oc1ccnc(-c2cnn(C)c2)c1 [Example 71, 3-cyclopropyl-N-(4,6-dimethyl-5-((2-(1-methyl-1H-pyrazol-4-yl)pyridin-4-yl)oxy)pyridin-2-yl)-2-oxoimidazolidine-1-carboxamide]	7.00 to 8.00
> 8.00	> 8.00	–	> 8.00	7.00 to 8.00	Cc1cc(NC(=O)N2CCN(C3CCCC3)C2=O)nc(C)c1Oc1ccnc(-c2cnn(C)c2)c1 [Example 72, 3-cyclopentyl-N-(4,6-dimethyl-5-((2-(1-methyl-1H-pyrazol-4-yl)pyridin-4-yl)oxy)pyridin-2-yl)-2-oxoimidazolidine-1-carboxamide]	> 8.00
> 8.00	7.00 to 8.00	–	6.00 to 7.00	< 6.00	COCCN1CCN(C(=O)Nc2ccc(Oc3ccnc(-c4ccc(C5CCN(C)CC5)cc4)c3)c(C)n2)C1=O [Example 80, 3-(2-methoxyethyl)-N-(6-methyl-5-((2-(4-(1-methylpiperidin-4-yl)phenyl)pyridin-4-yl)oxy)pyridin-2-yl)-2-oxoimidazolidine-1-carboxamide]	7.00 to 8.00
7.00 to 8.00	7.00 to 8.00	–	7.00 to 8.00	6.00 to 7.00	Cn1cnc(-c2cc(Oc3ccc(NC(=O)N4CCN(C5CCOCC5)C4=O)nc3)ccn2)c1 [Example 83, N-(5-((2-(1-methyl-1H-imidazol-4-yl)pyridin-4-yl)oxy)pyridin-2-yl)-2-oxo-3-(tetrahydro-2H-pyran-4-yl)imidazolidine-1-carboxamide]	7.00 to 8.00
7.00 to 8.00	7.00 to 8.00	–	7.00 to 8.00	< 6.00	Cn1cnc(-c2cc(Oc3ccc(NC(=O)N4CCN(CC(F)(F)F)C4=O)nc3)ccn2)c1 [Example 84, N-(5-((2-(1-methyl-1H-imidazol-4-yl)pyridin-4-yl)oxy)pyridin-2-yl)-2-oxo-3-(2,2,2-trifluoroethyl)imidazolidine-1-carboxamide]	7.00 to 8.00
> 8.00	> 8.00	–	7.00 to 8.00	< 6.00	Cc1nc(NC(=O)N2CCN(C3CC3)C2=O)ccc1Oc1ccnc(-c2ccc(C3CCN(C)CC3)cc2)c1 [Example 86, 3-cyclopropyl-N-(6-methyl-5-((2-(4-(1-methylpiperidin-4-yl)phenyl)pyridin-4-yl)oxy)pyridin-2-yl)-2-oxoimidazolidine-1-carboxamide]	> 8.00
6.00 to 7.00	6.00 to 7.00	–	6.00 to 7.00	< 6.00	Cc1cn(-c2cc(Oc3cnc(NC(=O)N4CCN(C)C4=O)cc3C)ccn2)cn1 [Example 89, 3-methyl-N-(4-methyl-5-((2-(4-methyl-1H-imidazol-1-yl)pyridin-4-yl)oxy)pyridin-2-yl)-2-oxoimidazolidine-1-carboxamide]	< 6.00
7.00 to 8.00	6.00 to 7.00	–	7.00 to 8.00	< 6.00	Cn1cc(-c2cc(Oc3cc(F)c(NC(=O)N4CCN(C5CCOCC5)C4=O)cc3Br)ccn2)cn1 [Example 109, N-(5-bromo-2-fluoro-4-((2-(1-methyl-1H-pyrazol-4-yl)pyridin-4-yl)oxy)phenyl)-2-oxo-3-(tetrahydro-2H-pyran-4-yl)imidazolidine-1-carboxamide]	7.00 to 8.00
6.00 to 7.00	7.00 to 8.00	–	6.00 to 7.00	< 6.00	CCN1CCN(C(=O)Nc2ccc(Oc3ccnc(C(=O)NC)c3)cn2)C1=O [Example 115, 4-((6-(3-ethyl-2-oxoimidazolidine-1-carboxamido)pyridin-3-yl)oxy)-N-methylpicolinamide]	< 6.00
7.00 to 8.00	7.00 to 8.00	–	7.00 to 8.00	< 6.00	COCCN1CCN(C(=O)Nc2ccc(Oc3ccnc(NC(=O)N(C)C)c3)cn2)C1=O [Example 116, N-(5-((2-(3,3-dimethylureido)pyridin-4-yl)oxy)pyridin-2-yl)-3-(2-methoxyethyl)-2-oxoimidazolidine-1-carboxamide]	6.00 to 7.00
7.00 to 8.00	6.00 to 7.00	–	6.00 to 7.00	6.00 to 7.00	CC(=O)Nc1cc(Oc2ccc(NC(=O)N3CCN(C4CCOCC4)C3=O)nc2C)ccn1 [Example 121, N-(5-((2-acetamidopyridin-4-yl)oxy)-6-methylpyridin-2-yl)-2-oxo-3-(tetrahydro-2H-pyran-4-yl)imidazolidine-1-carboxamide]	6.00 to 7.00
7.00 to 8.00	6.00 to 7.00	–	< 6.00	< 6.00	CCN1CCN(C(=O)Nc2ccc(Oc3ccnc(NC(C)=O)c3)c(C)n2)C1=O [Example 122, N-(5-((2-acetamidopyridin-4-yl)oxy)-6-methylpyridin-2-yl)-3-ethyl-2-oxoimidazolidine-1-carboxamide]	6.00 to 7.00
